Measurements as given in PubChem BioAssay AID1918931 (Molecular Pharmacology Branch, DTP, NCI, 2023).
“And” between values parts separate entries of the source, which are not always exact repeats. Equal values may be shown once.

Tested on: 138582-337-R-J1-PDC complex spheroid viability
Test: Anticancer human tumor 138582-337-R-J1-PDC patient-derived Merkel cell tumor cell line growth inhibition
Settings: for viability, T/C: stronger effect = lower value
Text: Multicellular complex tumor spheroid response to LSD1 Inhibitor Iadademstat in combination with a variety of drugs and investigational agents in selected tumor cell lines
The current study was undertaken to assess response to LSD1 inhibitors in combination with standard-of-care drugs and investigational agents in solid tumor complex spheroid models as well as in the K-562 leukemia. Complex spheroids include a stromal component modeled by human endothelial cells (HUVEC) and fibroblasts modeled by human mesenchymal stem cells (MSCs). The concentration ranges selected for each drug and investigational agent were based upon clinically achievable concentrations if the clinical Cmax of the agent was known.
Compounds. The drugs and investigational agents used in this study are listed on Table 1. All of the agents used, including staurosporine (NSC755774) and gemcitabine (NSC613327), were obtained from the Developmental Therapeutics Program, NCI. FDA-approved anticancer drugs are available from the NCI at http://dtp.nci.nih.gov/branches/dscb/oncology_drugset_explanation.html. Drugs and investigational agents were >95% pure by proton nuclear magnetic resonance (NMR) and liquid chromatography/mass spectrometry (LC/MS). Stock solutions were prepared at 400x in DMSO, stored at -70 degrees C, and diluted in fresh medium prior to their use. The final concentration of DMSO in cell culture wells never exceeded 0.25% (v/v). The FDA-approved anticancer drug set is available from the Developmental Therapeutics Program at https://dtp.cancer.gov/organization/dscb/obtaining/available_plates.htm. All drugs and investigational agents were tested over a range starting from a high concentration at or near the clinical Cmax and decreasing in half-log increments. If the clinical Cmax for an agent had not been determined, the highest concentration tested was 10 microM.
Cell Lines. The patient-derived cancer cell (PDC) lines: 292921-168-R-J2-PDC, K24384-001-R-PDC, and 521955-158-R2-J5-PDC pancreatic carcinomas, 556581-035-R-J1 ovarian carcinoma, 324938-238-R-J1-PDC, 855422-203-R-J1-PDC and 883617-216-R-J1-PDC urothelial bladder carcinomas, 743489-274-T-PDC renal cell carcinoma, 138582-R-J1 Merkel cell tumor, K60290-347-R-J1 and K57222-313-R-J1-PDC glioblastomas, 653999-131-R-J2-PDC, LG0703-F948-PDC, and 349418-098-R-PDC non-small cell lung carcinomas, 885512-296-R-J2-PDC, 171881-019-R-J1-PDC breast carcinomas and 186277-243-T-J2-PDC and 233499-124-R-J2-PDC colon carcinomas were obtained from the NCI Patient-Derived Models Repository (PDMR, https://pdmr.cancer.gov). The established cell lines NCI/ADR-RES (RRID:CVCL_14520 and OVCAR-5 (RRID:CVCL_1628) ovarian carcinomas, 786-O (RRID:CVCL_1051) and A498 (RRID:CVCL_A498) renal cell carcinoma, NCI-H211 (ATCC, cat. CRL-5824; RRID:CVCL_1529), NCI-H196 (ATCC, cat. CRL-5823, RRID:CVCL_1509), SW 1271 (ATCC, cat. CRL-2177, RRID:CVCL_1716) and NCI-H1876 (ATCC, cat. CRL-5902, RRID:CVCL_1503) small cell lung carcinomas, MDA-MB-231 (RRID:CVCL_0062) and MDA-MB-468 (RRID:CVCL_0419)breast carcinomas (10-12). Pooled donor human umbilical vein endothelial cells (HUVEC, Lonza, cat. CC-2519) and human mesenchymal stem cells (hMSC, Lonza, cat. PT-2501) were purchased from Lonza (Walkersville, MD).
Cell Culture. All cells were maintained in an incubator at 37 degrees C and 5% CO2 with 95% humidity. The PDC lines were cultured according to standard operating procedures established by the NCI PDMR (https://pdmr.cancer.gov). Briefly all PDCs were thawed and cultured in Matrigel-coated flasks prepared with a working solution of 1X Ham's F-12 nutrient mix, without supplementation (Invitrogen, Waltham, MA, cat. 11765054), 100 U/mL penicillin-streptomycin (Invitrogen, cat. 15140122), and 2.5% Matrigel (Corning Inc., Corning, NY, cat. 354248) for the first three passages. […]
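Note: spheroids exposed to agents for 7 days.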
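Throughout, for viability, T/C: 100% = DMSO vehicle control viability.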

SMILES	IC50 (curve of compound)	viability, T/C (compound 0.0316 µM)	viability, T/C (compound 0.1 µM)	viability, T/C (compound 0.316 µM)	viability, T/C (compound 1 µM)	viability, T/C (compound 0.00949 µM)	viability, T/C (compound 0.03 µM)	viability, T/C (compound 0.0949 µM)	viability, T/C (compound 0.3 µM)	other results
NC1CC1c1ccc(-c2cccc(O)c2)cc1 (stereo not drawn)	–	–	75.3%	–	–	–	–	–	–	IC50 (compound alone, run of 02/01/2022): > 10000 nM
NC1CCC(NC2CC2c2ccccc2)CC1 (stereo not drawn)	–	–	–	95.6% and 95.3%	–	–	–	–	–	IC50 (compound alone, run of 01/24/2022): > 10000 nM
NS(=O)(=O)OCC1CC(n2ccc3c(NC4CCc5ccccc54)ncnc32)CC1O (stereo not drawn)	504 nM and 82 nM	–	–	–	–	96% and 74.9%	104% and 63.2%	93.9% and 50.6%	67.3% and 30.4%	viability, T/C (compound 0.949 µM): 28% and 26.4%; viability, T/C (compound 3 µM): 27.5% and 32.5%
Nc1ccn(C2OC(CO)C(O)C2(F)F)c(=O)n1 (stereo not drawn)	> 300 nM	–	–	–	–	86.5% and 77.4%	82.4% and 55.1%	80% and 59.3%	112% and 53.6%	viability, T/C (compound 0.000949 µM): 80.2% and 102%; viability, T/C (compound 0.003 µM): 94.3% and 100%
Nc1ncn(C2CC(O)C(CO)O2)c(=O)n1 (stereo not drawn)	> 1000 nM	90% and 123%	83.7% and 111%	112% and 122%	112% and 91.2%	–	–	–	–	viability, T/C (compound 0.00316 µM): 102% and 109%; viability, T/C (compound 0.01 µM): 78.7% and 124%
Nc1ncn(C2CC(O)C(CO)S2)c(=O)n1 (stereo not drawn)	> 300 nM	–	–	–	–	87.8% and 94.3%	94.6% and 92.3%	91.3% and 93.4%	80.5% and 74.7%	viability, T/C (compound 0.000949 µM): 96.8% and 93.8%; viability, T/C (compound 0.003 µM): 82.8% and 110%
O=C(c1cc(Cc2n[nH]c(=O)c3ccccc23)ccc1F)N1CCN(C(=O)C2CC2)CC1	> 10000 nM	106% and 90%	71.7% and 93.4%	96.6% and 98.8%	83.5% and 71.4%	–	–	–	–	viability, T/C (compound 3.16 µM): 78% and 57.2%; viability, T/C (compound 10 µM): 82.9% and 63.8%

More lines, main results first:

IC50 (curve of compound)	SMILES	viability, T/C (compound 0.0316 µM)	viability, T/C (compound 0.1 µM)	viability, T/C (compound 0.316 µM)	viability, T/C (compound 1 µM)	viability, T/C (compound 0.00949 µM)	viability, T/C (compound 0.03 µM)	viability, T/C (compound 0.0949 µM)	viability, T/C (compound 0.3 µM)	other results
1340 nM and 2680 nM	COc1ccc([C@@H](O)c2cc(-c3ncnc4cc(N5CCOCC5)ccc34)c(F)cc2Cl)nn1	92.5% and 76.9%	79.5% and 91.7%	64.9% and 66.6%	50.7% and 71.1%	–	–	–	–	viability, T/C (compound 3.16 µM): 45.5% and 46%; viability, T/C (compound 10 µM): 27.3% and 20.6%
> 100 nM	Cn1ncnc1C1c2n[nH]c(=O)c3cc(F)cc(c23)NC1c1ccc(F)cc1 (stereo not drawn)	94.4% and 70.4%	91.1% and 67.1%	–	–	–	–	–	–	viability, T/C (compound 0.000316 µM): 96.7% and 103%; viability, T/C (compound 0.001 µM): 93.5% and 95.9%; viability, T/C (compound 0.00316 µM): 83.5% and 99.5%; viability, T/C (compound 0.01 µM): 86.7% and 92.9%
1160 nM and 279 nM	Nc1ccccc1NC(=O)c1ccc(CNC(=O)OCc2cccnc2)cc1	–	–	–	–	96.2% and 67%	93.9% and 66.7%	86.3% and 61.3%	80.7% and 49.9%	viability, T/C (compound 0.949 µM): 61.3% and 13.2%; viability, T/C (compound 3 µM): 4.61% and 0.47%
616 nM and 84.4 nM	O=C(C=Cc1cccc(S(=O)(=O)Nc2ccccc2)c1)NO	–	–	–	–	96.1% and 76.4%	91.5% and 67.6%	90% and 49.2%	73.3% and 23.6%	viability, T/C (compound 0.949 µM): 36% and 0.96%
9.91 nM and 13 nM	O=C(C=Cn1cnc(-c2cc(C(F)(F)F)cc(C(F)(F)F)c2)n1)NNc1cnccn1	24.6% and 29.2%	15.6% and 17.7%	18.6% and 17.6%	16.4% and 15.4%	–	–	–	–	viability, T/C (compound 0.00316 µM): 79.5% and 60.6%; viability, T/C (compound 0.01 µM): 49.6% and 56.1%
